Patent US8546608B2, “Proteasome inhibitors and methods of using the same” (Cephalon, Inc., priority 2003, dated 2013)

Legend:
[1] = target: T1, 20S Human Erythrocyte Proteasome (HEP) (Homo sapiens, UniProt P20618+P28074); assay: Chymotrypsin-like activity of 20S Human Erythrocyte Proteasome (HEP), IC50 determination; type: biochemical; settings: assay of Example C, inhibition of HEP
T1 construct: 20S Human Erythrocyte Proteasome (HEP), purchased from Immatics Biotechnologies Inc; purchased Immatics Biotechnologies Inc., Tübingen, Germany; host or cells: human erythrocytes (natural source)
Summary of the method: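 20S proteasome at 0.2 μg/mL (about 0.6 nM catalytic sites) in 20 mM Tris with 0.04% SDS, preincubated 15 min at 37° C with inhibitor before Suc-LLVY-AMC (100 μM final). AMC fluorescence read in the linear range; triplicates, IC50 from concentration series.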

[2] = target: T2, proteasome in Molt-4 cells (human leukemia) (Homo sapiens, UniProt P20618+P28074); type: cell-based; settings: assay of Example E, inhibition of MOLT4; read-out: MOLT4 (EC50)
T2 sequence (P28074 60-263): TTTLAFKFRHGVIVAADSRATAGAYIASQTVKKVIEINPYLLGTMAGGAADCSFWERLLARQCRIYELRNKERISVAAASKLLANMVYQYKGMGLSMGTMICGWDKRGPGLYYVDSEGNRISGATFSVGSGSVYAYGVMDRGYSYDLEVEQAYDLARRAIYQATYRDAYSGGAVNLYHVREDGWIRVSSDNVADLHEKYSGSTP
T2 sequence (P20618 29-241): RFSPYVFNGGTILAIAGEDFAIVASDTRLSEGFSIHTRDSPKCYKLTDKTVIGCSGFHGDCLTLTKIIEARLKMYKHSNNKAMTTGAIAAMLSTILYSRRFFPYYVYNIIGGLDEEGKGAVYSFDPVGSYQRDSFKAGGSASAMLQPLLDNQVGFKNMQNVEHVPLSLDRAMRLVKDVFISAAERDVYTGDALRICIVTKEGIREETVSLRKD
Summary of the method: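 Intact Molt-4 cells (6×10^6 cells/mL) in HEPES-buffered saline were preincubated with inhibitor 15 min at 37 °C, then given cell-permeable MeOSuc-FLF-AFC at 25 μM final.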

IC50 [1]	EC50 [2]	SMILES
< 0.01 µM	0.2 to 2 µM	CC(C)C[C@H](NC(=O)[C@H](CCCNC(=N)N[N+](=O)[O-])NC(=O)CCc1c[nH]c2ccccc12)B1O[C@@H]2C[C@@H]3C[C@@H](C3(C)C)[C@]2(C)O1 [D.3.103, 3-(1H-Indol-3-yl)-propanamide,N-[(1S)-1-[[[(1R)-1-[(3aS,4S,6S,7aR)-hexahydro-3a,5,5-trimethyl-4,6-methano-1,3,2-benzodioxaborol-2-yl]-3-methylbutyl]amino]carbonyl]-4-[[imino(nitroamino)methyl]amino]butyl]]
< 0.01 µM	0.2 to 2 µM	CC(C)C[C@H](NC(=O)[C@H](CCCNC(=N)N[N+](=O)[O-])NC(=O)CCCOc1ccccc1)B1O[C@@H]2C[C@@H]3C[C@@H](C3(C)C)[C@]2(C)O1 [D.3.104]
< 0.01 µM	0.2 to 2 µM	CC(C)C[C@H](NC(=O)[C@H](CCCNC(=N)N[N+](=O)[O-])NC(=O)CCCC(=O)c1ccccc1)B1O[C@@H]2C[C@@H]3C[C@@H](C3(C)C)[C@]2(C)O1 [D.3.105, 5-Oxo-5-phenyl-pentanamide,N-[(1S)-1-[[[(1R)-1-[(3aS,4S,6S,7aR)-hexahydro-3a,5,5-trimethyl-4,6-methano-l,3,2-benzodioxaborol-2-yl]-3-methylbutyl]amino]carbonyl]-4-[[imino(nitroamino)methyl]amino]butyl]]
< 0.01 µM	< 0.2 µM	CC(C)C[C@H](NC(=O)[C@H](CCCNC(=N)N[N+](=O)[O-])NC(=O)CCCCCCCc1ccccc1)B1O[C@@H]2C[C@@H]3C[C@@H](C3(C)C)[C@]2(C)O1 [D.3.117, 8-Phenyl-octanamide,N-[(1S)-1-[[[(1R)-1-[(3aS,4S,6S,7aR)-hexahydro-3a,5,5-trimethyl-4,6-methano-1,3,2-benzodioxaborol-2-yl]-3-methylbutyl]amino]carbonyl]-4-[[imino(nitroamino)methyl]amino]butyl]]
< 0.01 µM	< 0.2 µM	CCCCCCCCCCCCC(=O)N[C@@H](CCCNC(=N)N[N+](=O)[O-])C(=O)N[C@@H](CC(C)C)B1O[C@@H]2C[C@@H]3C[C@@H](C3(C)C)[C@]2(C)O1 [D.3.119, Tridecanamide,N-[(1S)-1-[[[(1R)-1-[(3aS,4S,6S,7aR)-hexahydro-3a,5,5-trimethyl-4,6-methano-1,3,2-benzodioxaborol-2-yl]-3-methylbutyl]amino]carbonyl]-4-[[imino(nitroamino)methyl]amino]butyl]]
< 0.01 µM	< 0.2 µM	CC(C)C[C@H](NC(=O)[C@H](CCCNC(=N)N[N+](=O)[O-])NC(=O)CCCNC(=O)OCC1c2ccccc2-c2ccccc21)B1O[C@@H]2C[C@@H]3C[C@@H](C3(C)C)[C@]2(C)O1 [D.3.122, [[[(9H-fluoren-9-yl)methoxy]carbonyl]amino]butanamide, N-[(1S)-1-[[[(1R)-1-[(3aS,4S,6S,7aR)-hexahydro-3a,5,5-trimethyl-4,6-methano-1,3,2-benzodioxaborol-2-yl]-3-methylbutyl]amino]carbonyl]-4-[[imino(nitroamino)methyl]amino]butyl]]
< 0.01 µM	< 0.2 µM	CC(C)C[C@H](NC(=O)[C@H](CCCNC(=N)N[N+](=O)[O-])NC(=O)CCCCc1ccc(F)cc1)B1O[C@@H]2C[C@@H]3C[C@@H](C3(C)C)[C@]2(C)O1 [D.3.124, 5-(4-Fluorophenyl)-pentanamide,N-[(1S)-1-[[[(1R)-1-[(3aS,4S,6S,7aR)-hexahydro-3a,5,5-trimethyl-4,6-methano-1,3,2-benzodioxaborol-2-yl]-3-methylbutyl]amino]carbonyl]-4-[[imino(nitroamino)methyl]amino]butyl]]
< 0.01 µM	< 0.2 µM	CC(C)C[C@H](NC(=O)[C@H](CCCNC(=N)N[N+](=O)[O-])NC(=O)CCCCCCC(=O)c1ccccc1)B1O[C@@H]2C[C@@H]3C[C@@H](C3(C)C)[C@]2(C)O1 [D.3.125, 8-Oxo-8-phenyloctanamide,N-[(1S)-1-[[[(1R)-1-[(3aS,4S,6S,7aR)-hexahydro-3a,5,5-trimethyl-4,6-methano-l,3,2-benzodioxaborol-2-yl]-3-methylbutyl]amino]carbonyl]-4-[[imino(nitroamino)methyl]amino]butyl]]
< 0.01 µM	< 0.2 µM	CC(C)C[C@H](NC(=O)[C@H](CCCNC(=N)N[N+](=O)[O-])NC(=O)CCCc1cccs1)B1O[C@@H]2C[C@@H]3C[C@@H](C3(C)C)[C@]2(C)O1 [D.3.126, 4-(Thiophen-2-yl)butanamide,N-[(1S)-1-[[[(1R)-1-[(3aS,4S,6S,7aR)-hexahydro-3a,5,5-trimethyl-4,6-methano-1,3,2-benzodioxaborol-2-yl]-3-methylbutyl]amino]carbonyl]-4-[[imino(nitroamino)methyl]amino]butyl]]
< 0.01 µM	0.2 to 2 µM	CC(C)C[C@H](NC(=O)[C@H](CCCNC(=N)N[N+](=O)[O-])NC(=O)Cc1cccc(Cl)c1)B1O[C@@H]2C[C@@H]3C[C@@H](C3(C)C)[C@]2(C)O1 [D.3.128, 2-(3-Chlorophenyl)acetamide,N-[(1S)-1-[[[(1R)-1-[(3aS,4S,6S,7aR)-hexahydro-3a,5,5-trimethyl-4,6-methano-1,3,2-benzodioxaborol-2-yl]-3-methylbutyl]amino]carbonyl]-4-[[imino(nitroamino)methyl]amino]butyl]]
< 0.01 µM	< 0.2 µM	CCCCCCCCCCC(=O)N[C@@H](CCCNC(=N)N[N+](=O)[O-])C(=O)N[C@@H](CC(C)C)B1O[C@@H]2C[C@@H]3C[C@@H](C3(C)C)[C@]2(C)O1 [D.3.129, Undecanamide,N-[(1S)-1-[[[(1R)-1-[(3aS,4S,6S,7aR)-hexahydro-3a,5,5-trimethyl-4,6-methano-1,3,2-benzodioxaborol-2-yl]-3-methylbutyl]amino]carbonyl]-4-[[imino(nitroamino)methyl]amino]butyl]]
< 0.01 µM	< 0.2 µM	CC(C)C[C@H](NC(=O)[C@H](CCCNC(=N)N[N+](=O)[O-])NC(=O)CCCCCc1ccccc1)B1O[C@@H]2C[C@@H]3C[C@@H](C3(C)C)[C@]2(C)O1 [D.3.131, 6-Phenylhexanamide,N-[(1S)-1-[[[(1R)-1-[(3aS,4S,6S,7aR)-hexahydro-3a,5,5-trimethyl-4,6-methano-1,3,2-benzodioxaborol-2-yl]-3-methylbutyl]amino]carbonyl]-4-[[imino(nitroamino)methyl]amino]butyl]]
< 0.01 µM	< 0.2 µM	CC(C)C[C@H](NC(=O)[C@H](CCCNC(=N)N[N+](=O)[O-])NC(=O)CCCCc1ccccc1)B1O[C@@H]2C[C@@H]3C[C@@H](C3(C)C)[C@]2(C)O1 [D.3.132, 5-Phenylpentanamide,N-[(1S)-1-[[[(1R)-1-[(3aS,4S,6S,7aR)-hexahydro-3a,5,5-trimethyl-4,6-methano-1,3,2-benzodioxaborol-2-yl]-3-methylbutyl]amino]carbonyl]-4-[[imino(nitroamino)methyl]amino]butyl]]
< 0.01 µM	0.2 to 2 µM	CC(C)C[C@H](NC(=O)[C@H](CCCNC(=N)N[N+](=O)[O-])NC(=O)CCCCCCCCCO)B1O[C@@H]2C[C@@H]3C[C@@H](C3(C)C)[C@]2(C)O1 [D.3.133, 10-Hydroxydecanamide,N-[(1S)-1-[[[(1R)-1-[(3aS,4S,6S,7aR)-hexahydro-3a,5,5-trimethyl-4,6-methano-1,3,2-benzodioxaborol-2-yl]-3-methylbutyl]amino]carbonyl]-4-[[imino(nitroamino)methyl]amino]butyl]]
< 0.01 µM	> 10 µM	CC(C)C[C@H](NC(=O)[C@H](CCCNC(=N)N[N+](=O)[O-])NC(=O)Cn1cnnn1)B1O[C@@H]2C[C@@H]3C[C@@H](C3(C)C)[C@]2(C)O1 [D.3.136]
< 0.1 µM	2 to 10 µM	CC(C)C[C@H](NC(=O)[C@H](CCCNC(=N)N[N+](=O)[O-])NC(=O)CSc1ncccn1)B1O[C@@H]2C[C@@H]3C[C@@H](C3(C)C)[C@]2(C)O1 [D.3.137]
< 0.1 µM	0.2 to 2 µM	CSCCC(=O)N[C@@H](CCCNC(=N)N[N+](=O)[O-])C(=O)N[C@@H](CC(C)C)B1O[C@@H]2C[C@@H]3C[C@@H](C3(C)C)[C@]2(C)O1 [D.3.138, 3-Methylsulfanylpropanamide,N-[(1S)-1-[[[(1R)-1-[(3aS,4S,6S,7aR)-hexahydro-3a,5,5-trimethyl-4,6-methano-1,3,2-benzodioxaborol-2-yl]-3-methylbutyl]amino]carbonyl]-4-[[imino(nitroamino)methyl]amino]butyl]]
< 0.01 µM	0.2 to 2 µM	CC(=O)SCCCCCC(=O)N[C@@H](CCCNC(=N)N[N+](=O)[O-])C(=O)N[C@@H](CC(C)C)B1O[C@@H]2C[C@@H]3C[C@@H](C3(C)C)[C@]2(C)O1 [D.3.161, 6-(Acetylsulfanyl)hexanamide,N-[(1S)-1-[[[(1R)-1-[(3aS,4S,6S,7aR)-hexahydro-3a,5,5-trimethyl-4,6-methano-1,3,2-benzodioxaborol-2-yl]-3-methylbutyl]amino]carbonyl]-4-[[imino(nitroamino)methyl]amino]butyl]]
